What all share (type): cell-based
Test [1] concerns HEK-Blue IL-23 cells (IL-23-stimulated STAT3 SEAP reporter; TYK2 JH2). Briefly: HEK-Blue IL-23 SEAP reporter assay for profiling TYK2 pseudokinase (JH2) inhibition. To be noted: 10 ng/mL human recombinant IL-23, SEAP reporter, read-out: IL23 (TYK2 inhibitory activity, IC50). In outline:
(§1)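 STAT-inducible SEAP read-out: IFNα/β cells got 1 ng/mL IFNα for 16-18 h and IL-23 cells got 10 ng/mL IL-23 for 22-24 hours. In both cases the cytokine followed a 60 min preincubation with titrated test compound.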

Test [2] deals with HEK-Blue IFNα/β cells (IFNα-stimulated STAT1 SEAP reporter; TYK2 JH2). Briefly: HEK-Blue IFNα/β SEAP reporter assay for profiling TYK2 pseudokinase (JH2) inhibition. Conditions: 1 ng/mL human recombinant IFNα, read-out: IFNα (TYK2 inhibitory activity, IC50). Put shortly: as §1
For test [3], the system named is HEK-Blue IL-2 reporter cells (IL-2-stimulated STAT5 SEAP reporter). Description: HEK-Blue IL-2 SEAP reporter assay for determining selectivity. To be noted: 4 ng/mL human recombinant IL-2. As to the method: (§2) Example B-3: HEK-Blue™ IL-2 and IFNγ Reporter Assays for Determining Selectivity
(§3) HEK-Blue™ IL-2 and IFNγ reporter cells with a stably-integrated cytokine receptor and STAT5 or STAT1 express STAT-inducible secreted embryonic alkaline phosphatase (SEAP) reporter gene upon cytokine stimulation. These cells were plated in DMEM (Gibco) containing 10% heat-inactivated FBS (Gibco) and 100 U/mL PenStrep (Gibco) at 37° C. under 5% CO2 conditions for 20-22 hours. The cells were then pretreated with serially diluted test compounds for 60 min prior to stimulation with either 4 ng/mL human recombinant IL-2 (Miltenyl Biotech) or 50 ng/mL human recombinant IFNγ (InvivoGen) for 24 hours. SEAP induction was measured using the QUANTI-Blue™ Solution (InvivoGen) according to the manufacturer's instructions.

The subject of test [4] is HEK-Blue IFNγ reporter cells (IFNγ-stimulated STAT1 SEAP reporter). Description: HEK-Blue IFNγ SEAP reporter assay for determining selectivity. Conditions: 50 ng/mL human recombinant IFNγ, read-out: IFN-γ (SEAP selectivity, IC50). As to the method:
as §2, §3

Where two headings read alike, the source gives them in different places.

For `[2H]C([2H])([2H])NC(=O)c1nnc(NC(=O)C2CC2)cc1Nc1cccc2c1N(C)C1(CC1)c1nc(C)nn1-2` [Compound 39, 6-(cyclopropanecarboxamido)-4-((2′,5′-dimethyl-5′H-spiro[cyclopropane-1,4′-[1,2,4]triazolo[1,5-a]quinoxalin]-6′-yl)amino)-N-(methyl-d3)pyridazine-3-carboxamide], the IC50 in test [1] is less than 30 nM; in test [2] (Homo sapiens, HEK-Blue), less than 30 nM; in test [3], more than 1000 nM; in test [4] (Homo sapiens, HEK-Blue), 300 to 1000 nM.
For `[2H]C([2H])([2H])NC(=O)c1cnc(NC(=O)C2CC2)cc1Nc1cccc2c1N(C)C1(CC1)c1nc(C)nn1-2` [Compound 40, 6-(cyclopropanecarboxamido)-4-((2′,5′-dimethyl-5′H-spiro[cyclopropane-1,4′-[1,2,4]triazolo[1,5-a]quinoxalin]-6′-yl)amino)-N-(methyl-d3)nicotinamide], the IC50 in test [1] was less than 30 nM; in test [2] (Homo sapiens, HEK-Blue), less than 30 nM; in test [3], more than 1000 nM; in test [4] (Homo sapiens, HEK-Blue), more than 1000 nM.
Take `[2H]C([2H])([2H])NC(=O)c1nnc(NC(=O)C2CC2)cc1Nc1cccc2c1N(C)[C@H](C([2H])([2H])[2H])c1nc(C)nn1-2` [Compound 44, (R)-6-(cyclopropanecarboxamido)-4-((2,5-dimethyl-4-(methyl-d3)-4,5-dihydro-[1,2,4]triazolo[1,5-a]quinoxalin-6-yl)amino)-N-(methyl-d3)pyridazine-3-carboxamide]: the IC50 was less than 30 nM in test [1]; less than 30 nM in test [2] (Homo sapiens, HEK-Blue); more than 1000 nM in test [3]; more than 1000 nM in test [4] (Homo sapiens, HEK-Blue).
Regarding `[2H]C([2H])([2H])NC(=O)c1cnc(NC(=O)C2CC2)cc1Nc1cccc2c1N(C)Cc1nn(C([2H])([2H])[2H])nc1-2` [Compound 49, 6-(cyclopropanecarboxamido)-N-(methyl-d3)-4-((5-methyl-2-(methyl-d3)-4,5-dihydro-2H-[1,2,3]triazolo[4,5-c]quinolin-6-yl)amino)nicotinamide], the IC50 in test [1] is less than 30 nM; in test [2] (Homo sapiens, HEK-Blue) it was less than 30 nM; in test [3], more than 1000 nM; in test [4] (Homo sapiens, HEK-Blue), 30 to 300 nM.
`[2H]C([2H])([2H])NC(=O)c1cnc(NC(=O)NC)cc1Nc1cccc2c1N(C)Cc1nn(C)nc1-2` [Compound 50, 4-((2,5-dimethyl-4,5-dihydro-2H-[1,2,3]triazolo[4,5-c]quinolin-6-yl)amino)-N-(methyl-d3)-6-(3-methylureido)nicotinamide]: the IC50 in test [1] is less than 30 nM; in test [2] (Homo sapiens, HEK-Blue) it was less than 30 nM; in test [3], more than 1000 nM; in test [4] (Homo sapiens, HEK-Blue), more than 1000 nM.
In the case of `[2H]C([2H])([2H])NC(=O)c1nnc(NC(=O)C2CC2)cc1Nc1cccc2c1N(C)C([2H])([2H])c1nn(C)nc1-2` [Compound 53, 6-(cyclopropanecarboxamido)-4-((2,5-dimethyl-4,5-dihydro-2H-[1,2,3]triazolo[4,5-c]quinolin-6-yl-4,4-d2)amino)-N-(methyl-d3)pyridazine-3-carboxamide], the IC50 is less than 30 nM in test [1]; less than 30 nM in test [2] (Homo sapiens, HEK-Blue); 300 to 1000 nM in test [3]; 30 to 300 nM in test [4] (Homo sapiens, HEK-Blue).
Take `[2H]C([2H])([2H])NC(=O)c1nnc(NC(=O)NC)cc1Nc1cccc2c1N(C)C([2H])([2H])c1nn(C)nc1-2` [Compound 54, 4-((2,5-dimethyl-4,5-dihydro-2H-[1,2,3]triazolo[4,5-c]quinolin-6-yl-4,4-d2)amino)-N-(methyl-d3)-6-(3-methylureido)pyridazine-3-carboxamide]: the IC50 was less than 30 nM in test [1]; less than 30 nM in test [2] (Homo sapiens, HEK-Blue); more than 1000 nM in test [3]; 300 to 1000 nM in test [4] (Homo sapiens, HEK-Blue).
With `[2H]C([2H])([2H])NC(=O)c1cnc(NC(=O)NC)cc1Nc1cccc2c1N(C)C([2H])([2H])c1nn(C)nc1-2` [Compound 63, 4-((2,5-dimethyl-4,5-dihydro-2H-[1,2,3]triazolo[4,5-c]quinolin-6-yl-4,4-d2)amino)-N-(methyl-d3)-6-(3-methylureido)nicotinamide], the IC50 in test [1] is less than 30 nM; in test [2] (Homo sapiens, HEK-Blue) it was less than 30 nM; in test [3], more than 1000 nM; in test [4] (Homo sapiens, HEK-Blue), more than 1000 nM.
For `[2H]C([2H])([2H])NC(=O)c1cnc(NC(=O)NC2CCC2)cc1Nc1cccc2c1N(C)Cc1nn(C)nc1-2` [Compound 64, 6-(3-cyclobutylureido)-4-((2,5-dimethyl-4,5-dihydro-2H-[1,2,3]triazolo[4,5-c]quinolin-6-yl)amino)-N-(methyl-d3)nicotinamide], the IC50 in test [1] was less than 30 nM; in test [2] (Homo sapiens, HEK-Blue), 30 to 300 nM; in test [3], more than 1000 nM; in test [4] (Homo sapiens, HEK-Blue) it was more than 1000 nM.
For `[2H]C([2H])([2H])NC(=O)c1cnc(NC(=O)NC2CC2)cc1Nc1cccc2c1N(C)Cc1nn(C)nc1-2` [Compound 66, 6-(3-cyclopropylureido)-4-((2,5-dimethyl-4,5-dihydro-2H-[1,2,3]triazolo[4,5-c]quinolin-6-yl)amino)-N-(methyl-d3)nicotinamide], the IC50 in test [1] was less than 30 nM; in test [2] (Homo sapiens, HEK-Blue), 30 to 300 nM; in test [3] it was more than 1000 nM; in test [4] (Homo sapiens, HEK-Blue) it was more than 1000 nM.
Take `[2H]C([2H])([2H])NC(=O)c1nnc(NC(=O)[C@@H]2CC2(F)F)cc1Nc1nccc2c1N(C)Cc1nn(C)nc1-2` [Compound 68, (S)-6-(2,2-difluorocyclopropane-1-carboxamido)-4-((2,5-dimethyl-4,5-dihydro-2H-[1,2,3]triazolo[4,5-c][1,7]naphthyridin-6-yl)amino)-N-(methyl-d3)pyridazine-3-carboxamide]: the IC50 in test [1] is less than 30 nM; in test [2] (Homo sapiens, HEK-Blue), less than 30 nM; in test [3] it was more than 1000 nM; in test [4] (Homo sapiens, HEK-Blue), 300 to 1000 nM.
Turning to `[2H]C([2H])([2H])NC(=O)c1nnc(NC(=O)[C@H]2CC2(F)F)cc1Nc1nccc2c1N(C)Cc1nn(C)nc1-2` [Compound 69, (R)-6-(2,2-difluorocyclopropane-1-carboxamido)-4-((2,5-dimethyl-4,5-dihydro-2H-[1,2,3]triazolo[4,5-c][1,7]naphthyridin-6-yl)amino)-N-(methyl-d3)pyridazine-3-carboxamide], the half-inhibitory concentration (IC50) in test [1] was less than 30 nM; in test [2] (Homo sapiens, HEK-Blue), 30 to 300 nM; in test [3], more than 1000 nM; in test [4] it was more than 1000 nM.
On to `[2H]C([2H])([2H])NC(=O)c1cnc(NC(=O)[C@@H]2CC2(F)F)cc1Nc1cccc2c1N(C)Cc1nn(C)nc1-2` [Compound 70, (S)-6-(2,2-difluorocyclopropane-1-carboxamido)-4-((2,5-dimethyl-4,5-dihydro-2H-[1,2,3]triazolo[4,5-c]quinolin-6-yl)amino)-N-(methyl-d3)nicotinamide], for which the IC50 was less than 30 nM in test [1]; 30 to 300 nM in test [2] (Homo sapiens, HEK-Blue); more than 1000 nM in test [3]; more than 1000 nM in test [4] (Homo sapiens, HEK-Blue).
Turning to `[2H]C([2H])([2H])NC(=O)c1nnc(NC(=O)[C@H]2CC2(F)F)cc1Nc1nccc2c1N(C)Cc1nn(C)nc1-2` [Compound 71, (R)-6-(2,2-difluorocyclopropane-1-carboxamido)-4-((2,5-dimethyl-4,5-dihydro-2H-[1,2,3]triazolo[4,5-c][1,7]naphthyridin-6-yl)amino)-N-(methyl-d3)pyridazine-3-carboxamide], the IC50 is less than 30 nM in test [1], less than 30 nM in test [2], more than 1000 nM in test [3] and 30 to 300 nM in test [4].

The record behind these values is patent US12084458B2, “Substituted pyridines, pyridazines, and pyrimidines as TYK2 inhibitors” (Sudo Biosciences Limited, priority 2021, dated 2024).
